In BindingDB's records for doi:10.1016/0922-4106(95)90043-8 (Uppsala, 1995):
Non-standard residues stand in square brackets, D forms with d. Residues, ends and D or L forms follow the SMILES beside them. Met(O2) = CS(=O)(=O)CC[C@H](N)C(=O)O

Legend:
Melanocortin receptor 5 = Melanocortin receptor 5 (Homo sapiens, UniProt P33032)
Melanocortin receptor 3 = Melanocortin receptor 3 (Homo sapiens, UniProt P41968)
[1] = molecular target: Melanocyte-stimulating hormone receptor (Homo sapiens, UniProt Q01726)
Chain of Melanocyte-stimulating hormone receptor (Q01726 whole entry): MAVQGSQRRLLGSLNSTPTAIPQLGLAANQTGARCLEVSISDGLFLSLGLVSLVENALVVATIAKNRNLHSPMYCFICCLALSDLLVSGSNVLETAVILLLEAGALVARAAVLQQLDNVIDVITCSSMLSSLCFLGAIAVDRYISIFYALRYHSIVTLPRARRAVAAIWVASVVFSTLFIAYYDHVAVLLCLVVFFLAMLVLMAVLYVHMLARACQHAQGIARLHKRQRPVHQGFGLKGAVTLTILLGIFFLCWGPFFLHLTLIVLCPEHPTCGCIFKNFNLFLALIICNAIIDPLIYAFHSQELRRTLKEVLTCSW

Chain of Melanocortin receptor 3 (P41968 whole entry): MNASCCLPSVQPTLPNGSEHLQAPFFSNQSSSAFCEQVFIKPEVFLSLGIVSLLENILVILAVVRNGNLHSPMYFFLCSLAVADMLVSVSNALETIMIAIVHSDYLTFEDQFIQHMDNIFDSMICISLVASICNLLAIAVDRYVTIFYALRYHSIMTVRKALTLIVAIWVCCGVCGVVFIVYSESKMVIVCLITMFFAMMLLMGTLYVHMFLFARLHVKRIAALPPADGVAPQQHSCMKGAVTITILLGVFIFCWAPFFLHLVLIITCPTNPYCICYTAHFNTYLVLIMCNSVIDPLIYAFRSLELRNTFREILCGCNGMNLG
Chain of Melanocortin receptor 5 (P33032 whole entry): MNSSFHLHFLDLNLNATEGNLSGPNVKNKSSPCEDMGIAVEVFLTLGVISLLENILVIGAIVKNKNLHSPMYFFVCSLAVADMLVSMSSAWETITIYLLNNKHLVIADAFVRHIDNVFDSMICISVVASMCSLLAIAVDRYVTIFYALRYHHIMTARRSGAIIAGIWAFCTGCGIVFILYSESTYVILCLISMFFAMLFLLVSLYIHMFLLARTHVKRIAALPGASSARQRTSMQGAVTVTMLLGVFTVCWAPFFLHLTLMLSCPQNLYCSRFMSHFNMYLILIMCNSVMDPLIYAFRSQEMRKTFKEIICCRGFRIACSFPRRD

Compound | Ki (Melanocortin receptor 5) | Ki (Melanocortin receptor 3) | Ki [1]
H-SYSMEHFRWGKPVGKKRRPVKVYPNGAEDESAEAFPLEF-OH [ACTH] | > 10000 nM | 86.9 nM | 2.5 nM
H-SMEVRGW-OH [delta MSH] | > 10000 nM | > 10000 nM | > 10000 nM
CS(=O)(=O)CC[C@H](N)C(=O)N[C@@H](CCC(=O)O)C(=O)N[C@@H](Cc1c[nH]cn1)C(=O)N[C@@H](Cc1ccccc1)C(=O)N[C@H](CCCCN)C(=O)N[C@@H](Cc1ccccc1)C(=O)O [CAS_50913-82-1] (H-[Met(O2)]EHF[dK]F-OH) | > 10000 nM | > 10000 nM | > 10000 nM
CSCC[C@H](N)C(=O)N[C@@H](CCC(=O)O)C(=O)N[C@@H](Cc1cnc[nH]1)C(=O)N[C@@H](Cc1ccccc1)C(=O)N[C@@H](CCCNC(=N)N)C(=O)N[C@@H](Cc1c[nH]c2ccccc12)C(=O)NCC(N)=O [NSC_123787] | > 10000 nM | 784 nM | 106 nM

Other lines, results leading:

Ki (Melanocortin receptor 5) | Ki (Melanocortin receptor 3) | Ki [1] | Compound
> 10000 nM | 145 nM |  | CSCC[C@H](NC(=O)[C@H](CO)NC(=O)[C@H](Cc1ccc(O)cc1)NC(=O)[C@@H](N)CO)C(=O)N[C@@H](CCC(=O)O)C(=O)N[C@@H](Cc1cnc[nH]1)C(=O)N[C@@H](Cc1ccccc1)C(=O)N[C@@H](CCCNC(=N)N)C(=O)N[C@@H](Cc1c[nH]c2ccccc12)C(=O)NCC(N)=O [ACTH-(1-10)]
> 10000 nM | 10.9 nM | 1.39 nM | H-YVMGHFRWDRFGRRNGSSSSGVGGAAQ-OH [Gamma3-MSH]
 |  | 2.68 nM | CSCC[C@H](NC(=O)[C@@H](NC(=O)[C@@H](N)Cc1ccc(O)cc1)C(C)C)C(=O)NCC(=O)N[C@@H](Cc1cnc[nH]1)C(=O)N[C@@H](Cc1ccccc1)C(=O)N[C@@H](CCCN=C(N)N)C(=O)N[C@@H](Cc1c[nH]c2ccccc12)C(=O)N[C@@H](CC(=O)O)C(=O)N[C@@H](CCCN=C(N)N)C(=O)N[C@@H](Cc1ccccc1)C(N)=O [Gamma1-MSH]
